In PubChem BioAssay (NCI):
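1) Cells in 96-well plates. 2) Compound, 48 h, 5 concentrations. 3) Linear interpolation between surrounding doses. 4) Unreached endpoint = highest concentration. The concentration for full growth arrest is given as TGI.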 Where a SMILES comes first, the peptide text is derived from it. The star is where a group is joined. OSu = O=C1CCC(=O)N1O*

How the values were obtained:
Test in all cases: DTP human tumour cell line panel, 48 h
786-0 renal = tested on: 786-0 renal
A498 renal = tested on: A498 renal
A549 NSCLC = tested on: A549 NSCLC
ACHN renal = tested on: ACHN renal
BT-549 breast = tested on: BT-549 breast
COLO 205 colon = tested on: COLO 205 colon
EKVX NSCLC = tested on: EKVX NSCLC
HCC-2998 colon = tested on: HCC-2998 colon
HCT-116 colon = tested on: HCT-116 colon
HCT-15 colon = tested on: HCT-15 colon
HL-60(TB) leukemia = tested on: HL-60(TB) leukemia
HOP-62 NSCLC = tested on: HOP-62 NSCLC
HOP-92 NSCLC = tested on: HOP-92 NSCLC
HS 578T breast = tested on: HS 578T breast
HT29 colon = tested on: HT29 colon
IGROV1 ovarian = tested on: IGROV1 ovarian
K-562 leukemia = tested on: K-562 leukemia
KM12 colon = tested on: KM12 colon
M14 melanoma = tested on: M14 melanoma
MALME-3M melanoma = tested on: MALME-3M melanoma
MCF7 breast = tested on: MCF7 breast
MDA-MB-231 breast = tested on: MDA-MB-231 breast
MDA-N = tested on: MDA-N
MOLT-4 leukemia = tested on: MOLT-4 leukemia
NCI-H226 lung = tested on: NCI-H226 lung
NCI-H23 lung = tested on: NCI-H23 lung
NCI-H460 lung = tested on: NCI-H460 lung
OVCAR-5 ovarian = tested on: OVCAR-5 ovarian
OVCAR-8 ovarian = tested on: OVCAR-8 ovarian
PC-3 prostate = tested on: PC-3 prostate
RPMI-8226 leukemia = tested on: RPMI-8226 leukemia
RXF 393 renal = tested on: RXF 393 renal
SK-MEL-2 melanoma = tested on: SK-MEL-2 melanoma
SK-MEL-28 melanoma = tested on: SK-MEL-28 melanoma
SK-MEL-5 melanoma = tested on: SK-MEL-5 melanoma
SN12C renal = tested on: SN12C renal
SNB-19 CNS = tested on: SNB-19 CNS
SNB-75 CNS = tested on: SNB-75 CNS
SR leukemia = tested on: SR leukemia
SW-620 colon = tested on: SW-620 colon
T-47D breast = tested on: T-47D breast
TK-10 renal = tested on: TK-10 renal
U251 CNS = tested on: U251 CNS
UACC-257 melanoma = tested on: UACC-257 melanoma
UACC-62 melanoma = tested on: UACC-62 melanoma
UO-31 renal = tested on: UO-31 renal
CAKI-1 renal = tested on: CAKI-1 renal
CCRF-CEM leukemia = tested on: CCRF-CEM leukemia
DU-145 prostate = tested on: DU-145 prostate
LOX IMVI melanoma = tested on: LOX IMVI melanoma
MDA-MB-435 = tested on: MDA-MB-435
NCI-H522 lung = tested on: NCI-H522 lung
NCI/ADR-RES ovarian = tested on: NCI/ADR-RES ovarian
OVCAR-3 ovarian = tested on: OVCAR-3 ovarian
OVCAR-4 ovarian = tested on: OVCAR-4 ovarian
SF-268 CNS = tested on: SF-268 CNS
SF-295 CNS = tested on: SF-295 CNS
SF-539 CNS = tested on: SF-539 CNS
SK-OV-3 ovarian = tested on: SK-OV-3 ovarian

NCCCCC(NC(=O)C(N)Cc1ccc(O)cc1)C(=O)NC(CCCCN)C(=O)NC(CCCCN)C(=O)ON1C(=O)CCC1=O (centres undefined) (H-YKKK-OSu; configuration not given here)
TGI (786-0 renal): > 100 µM | TGI (A498 renal): > 100 µM | TGI (A549 NSCLC): > 100 µM | TGI (ACHN renal): > 100 µM | TGI (BT-549 breast): > 100 µM | TGI (COLO 205 colon): > 100 µM | TGI (EKVX NSCLC): > 100 µM | TGI (HCC-2998 colon): > 100 µM | TGI (HCT-116 colon): > 100 µM | TGI (HCT-15 colon): > 100 µM | TGI (HL-60(TB) leukemia): > 100 µM | TGI (HOP-62 NSCLC): > 100 µM | TGI (HOP-92 NSCLC): > 100 µM | TGI (HS 578T breast): > 100 µM | TGI (HT29 colon): > 100 µM | TGI (IGROV1 ovarian): > 100 µM | TGI (K-562 leukemia): > 100 µM | TGI (KM12 colon): > 100 µM | TGI (M14 melanoma): > 100 µM | TGI (MALME-3M melanoma): > 100 µM | TGI (MCF7 breast): > 100 µM | TGI (MDA-MB-231 breast): > 100 µM | TGI (MDA-N): > 100 µM | TGI (MOLT-4 leukemia): > 100 µM | TGI (NCI-H226 lung): > 100 µM | TGI (NCI-H23 lung): > 100 µM | TGI (NCI-H460 lung): > 100 µM | TGI (OVCAR-5 ovarian): > 100 µM | TGI (OVCAR-8 ovarian): > 100 µM | TGI (PC-3 prostate): > 100 µM | TGI (RPMI-8226 leukemia): > 100 µM | TGI (RXF 393 renal): > 100 µM | TGI (SK-MEL-2 melanoma): > 100 µM | TGI (SK-MEL-28 melanoma): > 100 µM | TGI (SK-MEL-5 melanoma): > 100 µM | TGI (SN12C renal): > 100 µM | TGI (SNB-19 CNS): > 100 µM | TGI (SNB-75 CNS): > 100 µM | TGI (SR leukemia): > 100 µM | TGI (SW-620 colon): > 100 µM | TGI (T-47D breast): > 100 µM | TGI (TK-10 renal): > 100 µM | TGI (U251 CNS): > 100 µM | TGI (UACC-257 melanoma): > 100 µM | TGI (UACC-62 melanoma): > 100 µM | TGI (UO-31 renal): > 100 µM

COc1ccc(C(SCCO)(c2ccccc2)c2ccc(OC)cc2)cc1
TGI (786-0 renal): 29.1 µM | TGI (A498 renal): 27.1 µM | TGI (A549 NSCLC): 27.3 µM | TGI (ACHN renal): 29.6 µM | TGI (BT-549 breast): 36.8 µM | TGI (CAKI-1 renal): 40.6 µM | TGI (CCRF-CEM leukemia): 40.7 µM | TGI (COLO 205 colon): 36.2 µM | TGI (DU-145 prostate): 30.6 µM | TGI (EKVX NSCLC): 29.7 µM | TGI (HCC-2998 colon): 15.2 µM | TGI (HCT-116 colon): 22.2 µM | TGI (HCT-15 colon): 30.3 µM | TGI (HL-60(TB) leukemia): 47.2 µM | TGI (HOP-62 NSCLC): 42 µM | TGI (HOP-92 NSCLC): 29.1 µM | TGI (HS 578T breast): > 44.1 µM | TGI (HT29 colon): 29.1 µM | TGI (IGROV1 ovarian): 46.2 µM | TGI (K-562 leukemia): > 72.9 µM | TGI (KM12 colon): 21.5 µM | TGI (LOX IMVI melanoma): 33.8 µM | TGI (M14 melanoma): 23.1 µM | TGI (MALME-3M melanoma): 31.4 µM | TGI (MCF7 breast): 18.5 µM | TGI (MDA-MB-231 breast): 25.4 µM | TGI (MDA-MB-435): 20.5 µM | TGI (MDA-N): 20.3 µM | TGI (MOLT-4 leukemia): 50.2 µM | TGI (NCI-H226 lung): 28.6 µM | TGI (NCI-H23 lung): 38.1 µM | TGI (NCI-H460 lung): 17.2 µM | TGI (NCI-H522 lung): 24.9 µM | TGI (NCI/ADR-RES ovarian): 34.7 µM | TGI (OVCAR-3 ovarian): 33.9 µM | TGI (OVCAR-4 ovarian): 49.1 µM | TGI (OVCAR-5 ovarian): 31.6 µM | TGI (OVCAR-8 ovarian): 43 µM | TGI (PC-3 prostate): 28.9 µM | TGI (RPMI-8226 leukemia): 69.1 µM | TGI (RXF 393 renal): 17.7 µM | TGI (SF-268 CNS): 26.8 µM | TGI (SF-295 CNS): 19 µM | TGI (SF-539 CNS): 31.2 µM | TGI (SK-MEL-2 melanoma): 25.8 µM | TGI (SK-MEL-28 melanoma): 34.1 µM | TGI (SK-MEL-5 melanoma): 21.1 µM | TGI (SK-OV-3 ovarian): 35.4 µM | TGI (SN12C renal): 30.5 µM | TGI (SNB-19 CNS): 22.8 µM | TGI (SNB-75 CNS): 16.8 µM | TGI (SW-620 colon): 35.6 µM | TGI (T-47D breast): 34.1 µM | TGI (TK-10 renal): 33.5 µM | TGI (U251 CNS): 14.8 µM | TGI (UACC-257 melanoma): 30.5 µM | TGI (UACC-62 melanoma): 24.8 µM | TGI (UO-31 renal): 31.7 µM
